The results in this text go back to BindingDB's records for doi:10.1016/j.chembiol.2016.11.011 (McMaster University, 2017).

The target of the assay is 2''-aminoglycoside nucleotidyltransferase (Pseudomonas aeruginosa (g-Proteobacteria)). The assay can be described thus: In Vitro ANT(2")-Ia Pyrophosphatase Assay. The procedure:
In vitro ANT(2")-Ia pyrophosphatase assays were performed as described previously (Cox et al., 2015; Hirsch et al., 2014), with minor modifications. To improve compound solubility, Tween 20 was added to a final concentration of 0.01% (v/v) and compounds were added at a final concentration of 2% (v/v) DMSO. The enzyme ([…] reaction volume) was incubated with compound for 10 min at 25 °C, prior to initiation of the reaction with nucleotide. All inhibitory assays were performed with kanamycin B kept at Km (Cox et al., 2015; Hirsch et al., 2014).

Each structure is given as a SMILES string.

Regarding `CS(=O)(=O)CCNCc1ccc(-c2ccc3ncnc(Nc4ccc(OCc5ccccc5)c(Cl)c4)c3c2)o1`, the affinity, expressed as Ki, was 60 µM.

As to `[O-][S+]1CCN(Cc2ccc(-c3ccc4ncnc(Nc5ccc(OCc6ccccc6)c(Cl)c5)c4c3)o2)CC1` [(4-benzyloxy-3-chloro-phenyl)-{6-[5-(1-oxo-1lambda*4*-thiomorpholin-4-ylmethyl)-furan-2-yl]-quinazolin-4-yl}-amine], the Ki (in general, a dissociation constant, usually derived from enzyme kinetics or from competition with a known ligand) is 12.9 µM.
